For one data set, the target named is CXCR4 (Homo sapiens, UniProt P61073). Kind of data set: Ca2+-assay method 2 (Flexstation, SDF-1 induced calcium mobilization). Particulars: method 2 (Ex. 54-160), mouse pre-B cell line 300-19 with human CXCR4, 10 nM SDF-1. Set-up: expressed in transfected cells; host or cells: mouse pre-B cell line 300-19. The data set is classed as cell-based. Here is the method: 2.2. Ca^2+-Assay: CXCR4-Antagonizing Activity of the Peptides.
The cells were batch loaded with the Calcium 3 Assay kit (Molecular Devices) in assay buffer (Hanks Balanced salt solution, HBSS, 20 mM HEPES, pH 7.4, 0.1% BSA) for 1 h at room temperature and then 200,000 labeled cells were dispensed into black 96 well assays plates (Costar No. 3603). A 20-fold concentrated solution of peptide in assay buffer was added to the cells and the whole plate was centrifuged to settle the cells to the bottom of the wells. Calcium mobilization induced by 10 nM stromal-derived factor-1 (SDF-1) was measured in the Flexstation 384 (excitation, 485 nM; emission, 525 nM) for 90 seconds. A maximal change in fluorescence response above baseline was used to calculate antagonist activity. The data for dose response curves (antagonist concentration versus % maximum response) were fitted to a four parameter logistic equation using SoftmaxPro 4.6 (Molecular Devices), from which IC50% values were calculated.
For orientation: Calcium assays in cells follow changes in intracellular calcium, usually with a dye or a luminescent sensor.

The nature of a further data set: in vitro. As to conditions: human.
The subject of data set [1] is human red blood cells (hRBC). Kind of data set: Hemolysis. The class given is cell-based. How it is done:
The peptides were tested for their hemolytic activity against human red blood cells (hRBC). Fresh hRBC were washed three times with phosphate buffered saline (PBS) by centrifugation for 10 min at 2000×g. Peptides at a concentration of 100 μM were incubated with 20% v/v hRBC for 1 hour at 37° C. The final erythrocyte concentration was approximately 0.9×10^9 cells per ml. A value of 0% resp. 100% cell lysis was determined by incubation of the hRBC in the presence of PBS alone and respectively 0.1% Triton X-100 in H2O. The samples were centrifuged and the supernatant was 20-fold diluted in PBS buffer and the optical density (OD) of the sample at […] was measured. The 100% lyses value (OD540H2O) gave an OD540 of approximately 1.3-1.8. Percent hemolysis was calculated as follows: (OD540peptide/OD540H2O)×100%.

Setting [2] is: read-out: IC50 (nM) Ca^2+ assay.

Where two headings read alike, the source gives them in different places. Bridge positions count the residues as written; N and C are the ends. Square brackets hold non-standard residues; d marks the D form. Peptide text beside a SMILES is read from it. * marks the point of attachment. Decanoyl(3,6,9-trioxa) = COCCOCCOCC(=O)*; 2Nal = N[C@@H](Cc1ccc2ccccc2c1)C(=O)O; Cit = NC(=O)NCCC[C@H](N)C(=O)O; Dab = NCC[C@H](N)C(=O)O; Dap = NC[C@H](N)C(=O)O
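Wherever GI50 is given: MTT reduction read as absorbance at 595 nm, blank-corrected and expressed as percent growth relative to the time-zero cell reading, triplicate wells per concentration.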

CXCR4, sequence (P61073 whole entry): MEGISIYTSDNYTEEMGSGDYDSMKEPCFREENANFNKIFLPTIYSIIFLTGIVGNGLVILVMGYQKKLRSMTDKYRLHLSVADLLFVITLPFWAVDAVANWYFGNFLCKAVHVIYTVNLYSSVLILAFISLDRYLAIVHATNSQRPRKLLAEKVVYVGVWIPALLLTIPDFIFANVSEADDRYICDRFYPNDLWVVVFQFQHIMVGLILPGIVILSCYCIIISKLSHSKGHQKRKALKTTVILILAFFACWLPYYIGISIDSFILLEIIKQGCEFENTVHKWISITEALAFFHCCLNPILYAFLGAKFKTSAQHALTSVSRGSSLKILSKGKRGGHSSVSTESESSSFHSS

Consider `N=C(N)NCCC[C@@H]1NC(=O)[C@@H]2CSSC[C@H](NC(=O)[C@H](Cc3ccc4ccccc4c3)NC(=O)[C@H](CCCNC(=N)N)NC(=O)[C@H](CCCNC(=N)N)NC(=O)[C@H]3CCCN3C(=O)CNC1=O)C(=O)N[C@@H](Cc1ccc(O)cc1)C(=O)N[C@@H](CCCNC(N)=O)C(=O)N[C@@H](CCCCN)C(=O)N[C@H]1CSSC[C@H](NC(=O)[C@H](Cc3ccc(O)cc3)NC(=O)CNC(=O)[C@H](CCCCN)NC(=O)[C@H](Cc3ccc(O)cc3)NC1=O)C(=O)N[C@@H](Cc1ccc(O)cc1)C(=O)N[C@@H](CCCNC(=N)N)C(=O)N[C@@H](CCCNC(N)=O)C(=O)N2` [Ex. 154] (cyclo([2Nal]CY[Cit]KCYKGYCYR[Cit]CRG[dP]RR); disulfide 2-15, 6-11), for which the IC50 (in general, the point on the concentration scale where inhibition reaches its midpoint) on CXCR4 (IC50 (nM) Ca^2+ assay) was 9.3 nM.

Consider `C[C@@H]1NC(=O)[C@H](CCCNC(=N)N)NC(=O)[C@@H]2CSSC[C@H](NC(=O)[C@H](Cc3c[nH]c4ccccc34)NC(=O)[C@H](CCCNC(=N)N)NC(=O)[C@H](CCCNC(=N)N)NC(=O)[C@H]3CCCN3C1=O)C(=O)N[C@@H](Cc1ccc(O)cc1)C(=O)N[C@@H](CCCNC(N)=O)C(=O)N[C@@H](CCCCN)C(=O)N1CCC[C@@H]1C(=O)N1CCC[C@H]1C(=O)N[C@@H](Cc1ccc(O)cc1)C(=O)N[C@@H](CCCNC(=N)N)C(=O)N[C@@H](CCCNC(N)=O)C(=O)N2` [Ex. 143] (cyclo(YR[Cit]CRA[dP]RRWCY[Cit]K[dP]P); disulfide 4-11), for which the IC50 on CXCR4 (setting [2]) came out at 0.9 nM. Also, in “in vitro”, the GI50 (in general, the concentration that inhibits growth by half) at 48 h is 46000 nM.

Turning to `N=C(N)NCCC[C@@H]1NC(=O)[C@H](CCCNC(=N)N)NC(=O)[C@H]2CCCN2C(=O)CNC(=O)[C@H](CCN)NC(=O)[C@@H]2CSSC[C@H](NC(=O)[C@H](Cc3c[nH]c4ccccc34)NC1=O)C(=O)N[C@@H](Cc1ccc(O)cc1)C(=O)N[C@@H](CCC(N)=O)C(=O)N[C@@H](CCCCN)C(=O)N1CCC[C@@H]1C(=O)N1CCC[C@H]1C(=O)N[C@@H](Cc1ccc(O)cc1)C(=O)N[C@@H](CCCNC(=N)N)C(=O)N[C@@H](CCCNC(N)=O)C(=O)N2` [Ex. 111] (cyclo(YR[Cit]C[Dab]G[dP]RRWCYQK[dP]P); disulfide 4-11), in “in vitro”, the GI50 at 48 h was > 100000 nM. The Hemolysis at 100 μM in data set [1] is 0%. The corresponding values for `N=C(N)NCCC[C@@H]1NC(=O)[C@@H]2CSSC[C@H](NC(=O)[C@H](Cc3ccc4ccccc4c3)NC(=O)[C@H](CCCNC(=N)N)NC(=O)[C@H](CCCNC(=N)N)NC(=O)[C@H]3CCCN3C(=O)CNC1=O)C(=O)N[C@@H](Cc1ccc(O)cc1)C(=O)N[C@@H](CCC(N)=O)C(=O)N[C@@H](CCCCN)C(=O)N1CCC[C@@H]1C(=O)N1CCC[C@H]1C(=O)N[C@@H](Cc1ccc(O)cc1)C(=O)N[C@@H](CCCNC(=N)N)C(=O)N[C@@H](CCCNC(N)=O)C(=O)N2` [Ex. 132] (cyclo(RR[2Nal]CYQK[dP]PYR[Cit]CRG[dP]); disulfide 4-13) are 76000 nM and 0%.

`N=C(N)NCCC[C@@H]1NC(=O)[C@@H]2CSSC[C@H](NC(=O)[C@H](Cc3ccc4ccccc4c3)NC(=O)[C@H](CCCNC(=N)N)NC(=O)[C@H](CN)NC(=O)[C@H]3CCCN3C(=O)CNC1=O)C(=O)N[C@@H](Cc1ccc(O)cc1)C(=O)N[C@@H](CCCNC(N)=O)C(=O)N[C@@H](CCCCN)C(=O)N1CCC[C@@H]1C(=O)N1CCC[C@H]1C(=O)N[C@@H](Cc1ccc(O)cc1)C(=O)N[C@@H](CCCNC(=N)N)C(=O)N[C@@H](CCCNC(N)=O)C(=O)N2` [Ex. 135] (cyclo(YR[Cit]CRG[dP][Dap]R[2Nal]CY[Cit]K[dP]P); disulfide 4-11): in “in vitro”, the concentration for 50% growth inhibition (GI50) at 48 h came out at 30000 nM. The molecule also yielded a Hemolysis at 100 μM in data set [1] of 0.1%.

Take `N=C(N)NCCC[C@@H]1NC(=O)[C@@H]2CSSC[C@H](NC(=O)[C@H](Cc3ccc4ccccc4c3)NC(=O)[C@H](CCCNC(=N)N)NC(=O)[C@H](CCCNC(=N)N)NC(=O)[C@H]3CCCN3C(=O)CNC1=O)C(=O)N[C@@H](Cc1ccc(O)cc1)C(=O)N[C@@H](CCC(N)=O)C(=O)N[C@@H](CCCCN)C(=O)N1CCC[C@@H]1C(=O)N1CCC[C@H]1C(=O)N[C@@H](Cc1ccc(O)cc1)C(=O)N[C@@H](CCCNC(=N)N)C(=O)N[C@@H](CCCNC(N)=O)C(=O)N2` [Ex. 115] (cyclo(RR[2Nal]CYQK[dP]PYR[Cit]CRG[dP]); disulfide 4-13): the IC50 on CXCR4 (setting [2]) was 2.7 nM. The same molecule returned a Hemolysis at 100 μM in data set [1] of 0.1%. Take `COCCOCCOCC(=O)NCC[C@@H]1NC(=O)[C@H]2CCCN2C(=O)CNC(=O)[C@H](CCCNC(=N)N)NC(=O)[C@@H]2CSSC[C@H](NC(=O)[C@H](Cc3c[nH]c4ccccc34)NC(=O)[C@H](CCCNC(=N)N)NC1=O)C(=O)N[C@@H](Cc1ccc(O)cc1)C(=O)N[C@@H](CCCNC(N)=O)C(=O)N[C@@H](CCCCN)C(=O)N1CCC[C@@H]1C(=O)N1CCC[C@H]1C(=O)N[C@@H](Cc1ccc(O)cc1)C(=O)N[C@@H](CCCNC(=N)N)C(=O)N[C@@H](CCCNC(N)=O)C(=O)N2` [Ex. 142] (cyclo(YR[Cit]CRG[dP][Dab](Decanoyl(3,6,9-trioxa))RWCY[Cit]K[dP]P); disulfide 4-11): on CXCR4 (IC50 (nM) Ca^2+ assay), the IC50 came to 96.9 nM.

For `N=C(N)NCCC[C@@H]1NC(=O)[C@@H]2CSSC[C@H](NC(=O)[C@H](Cc3c[nH]c4ccccc34)NC(=O)[C@H](CCCNC(=N)N)NC(=O)[C@H](CCCNC(=N)N)NC(=O)[C@H]3CCCN3C(=O)CNC1=O)C(=O)N[C@@H](Cc1ccc(O)cc1)C(=O)N[C@@H](CCCNC(=N)N)C(=O)N[C@@H](CCCCN)C(=O)N[C@H]1CSSC[C@H](NC(=O)[C@H](Cc3ccc(O)cc3)NC(=O)CNC(=O)[C@H](CCCCN)NC(=O)[C@H](Cc3ccc(O)cc3)NC1=O)C(=O)N[C@@H](Cc1ccc(O)cc1)C(=O)N[C@@H](CCCNC(=N)N)C(=O)N[C@@H](CCCCN)C(=O)N2` [Ex. 160] (cyclo(CRG[dP]RRWCYRKCYKGYCYRK); disulfide 1-8, 12-17), on CXCR4 (IC50 (nM) Ca^2+ assay), the IC50 is 0.38 nM. On the same count and under the same terms, as for `N=C(N)NCCC[C@@H]1NC(=O)[C@@H]2CSSC[C@H](NC(=O)[C@H](Cc3c[nH]c4ccccc34)NC(=O)[C@H](CCCNC(=N)N)NC(=O)[C@H](CCCNC(=N)N)NC(=O)[C@H]3CCCN3C(=O)CNC1=O)C(=O)N[C@@H](Cc1ccc(O)cc1)C(=O)N[C@@H](CCC(N)=O)C(=O)N[C@@H](CCCCN)C(=O)N[C@H]1CSSC[C@H](NC(=O)[C@H](Cc3ccc(O)cc3)NC(=O)CNC(=O)[C@H](CCCCN)NC(=O)[C@H](Cc3ccc(O)cc3)NC1=O)C(=O)N[C@@H](Cc1ccc(O)cc1)C(=O)N[C@@H](CCCNC(=N)N)C(=O)N[C@@H](CCCNC(N)=O)C(=O)N2` [Ex. 155] (cyclo(CRG[dP]RRWCYQKCYKGYCYR[Cit]); disulfide 1-8, 12-17), the figure is 0.46 nM. Consider `C[C@@H](O)[C@@H]1NC(=O)[C@H](CCCNC(=N)N)NC(=O)[C@H](Cc2ccc(O)cc2)NC(=O)[C@@H]2CCCN2C(=O)[C@H]2CCCN2C(=O)[C@H](CCCCN)NC(=O)[C@H](CCCNC(N)=O)NC(=O)[C@H](Cc2ccc(O)cc2)NC(=O)[C@@H]2CSSC[C@H](NC1=O)C(=O)N[C@@H](CCCNC(=N)N)C(=O)NCC(=O)N1CCC[C@@H]1C(=O)N[C@@H](CCCNC(=N)N)C(=O)N[C@@H](CCCNC(=N)N)C(=O)N[C@@H](Cc1ccc(O)cc1)C(=O)N2` [Ex. 146] (cyclo(YRTCRG[dP]RRYCY[Cit]K[dP]P); disulfide 4-11), for which, at CXCR4 (setting [2]), the IC50 came to 0.24 nM. `N=C(N)NCCC[C@@H]1NC(=O)[C@@H]2CSSC[C@H](NC(=O)[C@H](Cc3c[nH]c4ccccc34)NC(=O)[C@H](CCCNC(=N)N)NC(=O)[C@H](CCCNC(=N)N)NC(=O)[C@H]3CCCN3C(=O)CNC1=O)C(=O)N[C@@H](Cc1ccc(O)cc1)C(=O)N[C@@H](CCCNC(N)=O)C(=O)N[C@@H](CCCCN)C(=O)N1CCC[C@@H]1C(=O)N1CCC[C@H]1C(=O)N[C@@H](Cc1ccc(O)cc1)C(=O)N[C@@H](CCCNC(=N)N)C(=O)N[C@@H](CCCNC(N)=O)C(=O)N2` [Ex. 128] (cyclo(YR[Cit]CRG[dP]RRWCY[Cit]K[dP]P); disulfide 4-11): on CXCR4 (setting [2]), the IC50 worked out at 4.5 nM. As for `CC(C)C[C@@H]1NC(=O)[C@@H]2CCCN2C(=O)[C@H]2CCCN2C(=O)[C@H](CCCCN)NC(=O)[C@H](CCC(N)=O)NC(=O)[C@H](Cc2ccc(O)cc2)NC(=O)[C@@H]2CSSC[C@H](NC(=O)[C@H](CCCNC(N)=O)NC(=O)[C@H](CCCNC(=N)N)NC1=O)C(=O)N[C@@H](CCCNC(=N)N)C(=O)NCC(=O)N1CCC[C@@H]1C(=O)N[C@@H](CCCNC(=N)N)C(=O)N[C@@H](CCCNC(=N)N)C(=O)N[C@@H](Cc1ccc3ccccc3c1)C(=O)N2` [Ex. 144] (cyclo(LR[Cit]CRG[dP]RR[2Nal]CYQK[dP]P); disulfide 4-11), on CXCR4 (setting [2]), the IC50 was 0.18 nM.
